Source: patent publication US10294234B2, “HIV inhibitor compounds” (priority 2017, dated 2019)

Experiments:
[1] = test system: HIV-1 (IIIB) in MT-4 cells; experiment: MT-4 HIV High Resolution Antiviral Assay; format: cell-based
Description: Compounds were tested in a high-throughput 384-well assay format for their ability to inhibit the replication of HIV-1 (IIIB) in MT-4 cells. Compounds were serially diluted (1:3) in DMSO on 384-well polypropylene plates and further diluted 200-fold into complete RPMI media (10% FBS, 1% P/S) using the Biotek Micro Flow and Agilent ECHO acoustic dispenser. Each plate contained up to 8 test compounds, with negative (No Drug Control) and 5 uM AZT positive controls. MT-4 cells were pre-infected with 10 uL of either RPMI (mock-infected) or a fresh 1:250 dilution of an HIV-1 (IIIB) concentrated virus stock. Infected and uninfected MT-4 cells were further diluted in complete RPMI media and added to each plate using a Micro Flow dispenser. After 5 days incubation in a humidified and temperature controlled incubator (37° C.), Cell Titer Glo (Promega) was added to the assay plates to quantify the amount of luciferase. EC50 and CC50 values were defined as the compound concentration that causes a 50% decrease in luminescence signal, and were calculated using a sigmoidal dose-response model to generate curve fits.
(§1) MT-4 HIV High Resolution Antiviral Assay
(§2) Assay protocol is identical to that described for the MT-4 antiviral assay with the following changes: Each drug is run in 2 series of quadruplicates with different starting concentrations for each series and 19 1.5 fold dilutions performed across the plate. […] Data is analyzed and Hill coefficients determined in Graph Pad Prism (San Diego, Calif.). EC95s were determined by the formula EC95=(19)^I/hill coefficient×EC50. HD values were determined for certain compounds and reported in Table 5 below as an illustrative example.

[2] = test system: HIV-1 (IIIB) in MT-4 cells; experiment: Protein adjusted EC95 (high resolution antiviral assay with equilibrium dialysis plasma protein binding); format: cell-based; details: EC95 adjusted for plasma protein binding (10% plasma vs cell culture media)
Description: as §1, §2
Equilibrium Dialysis Assay
Pooled plasma (from at least 3 males and 3 females) was from Bioreclamation IVT. Sodium EDTA was used as the anticoagulant. 10% plasma was diluted in 0.133M phosphate buffer consisted of 1.5% (w/v) Sodium EDTA.
RPMI cell culture media consisted 10% FBS was provided by biology department, Gilead Sciences, Inc.
Plasma Protein Binding Assay:
Studies were conducted in duplicate or triplicate using a Dianorm Equilibrium Dialyser (Harvard Apparatus, Holliston Mass.) with each cell consisting of a semipermeable membrane (2.4 cm working diameter) separating two 1 mL PTFE half-cells (Weder HG, Schildknecht J, Kesselring P. A new equilibrium dialyzing system. American Laboratory. 1971; 10: 15-21). Prior to the study, the dialysis membrane was soaked for approximately one hour in 0.133 M phosphate buffer, pH 7.4. 10% plasma and cell culture media spiked with 1 μM compound (1 mL) were placed into opposite sides of the assembled dialysis cells and the dialysis cells were then rotated slowly in a 37° C. water bath. After the equilibration period, matrix-containing samples from both sides were drained into pre-weighed polypropylene tubes. Post-dialysis 10% plasma samples were transferred into centrifuge tubes containing 1 mL of blank cell culture media. Post-dialysis cell culture media samples were transferred into centrifuge tubes containing 1 mL of blank 10% plasma. All samples weights were measured and recorded for calculations of volume shift and recovery. […]

[3] = test system: HIV-1 (IIIB) in MT-4 cells; experiment: MT-4 HIV assay; format: cell-based; details: Human immunodeficiency virus 1, MT4, 120 h; HIV-1 (IIIB), MT-4 cells, 5 days, Cell Titer Glo; read-out: EC50
Procedure, shortened: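 MT-4 cells infected with HIV-1 IIIB (1:250 stock dilution) were incubated with 1:3 serially diluted compounds in RPMI with 10% FBS for 5 days at 37 °C. Cell Titer Glo luminescence was the readout. Plates included mock-infected wells, no-drug wells and 5 uM AZT controls.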

in vivo = experiment: in vivo
Description: Pharmacokinetic Profiling Dog PK
Each dosing group consisted of three non-naïve male beagle dogs. At dosing, the animals weighed between 9 to 12 kg. The animals were fasted overnight prior to dose administration and up to four hours after dosing. The test article was administered by intravenous infusion over 30-minutes. The rate of infusion was adjusted according to the body weight of each animal to deliver a dose of 0.5 or 1.0 mg/kg. For the oral dosing group, the test article was administered by oral gavage at a dose volume of 2 mL/kg.
Serial venous blood samples (approximately 1.0 mL each) were collected at predose and 0.25, 0.48, 0.58, 0.75, 1.0, 1.5, 2, 4, 8, 12 and 24 hours post dose from each animal for the IV dosing group; blood samples were collected at predose, 0.25, 0.50, 1, 2 4, 6, 8,12 and 24 hours post dose for the oral dosing group. The blood samples were collected into Vacutainer™ tubes containing EDTA-K2 as the anti-coagulant and were immediately placed on wet ice pending centrifugation for plasma. An LC/MS/MS method was used to measure the concentration of test compound in plasma. Non-compartmental pharmacokinetic analysis was performed on the plasma concentration-time data. VSS=apparent volume of distribution, t1/2=half life, F=oral bioavailability.

[4] = male beagle dogs, IV infusion over 30 minutes, 0.5 or 1.0 mg/kg

## COC(=O)N[C@H](C(=O)N[C@@H](Cc1ccc(C#Cc2ccc(N3CC4CCC(C3)N4C3COC3)nc2)cc1)[C@@H](O)CN(Cc1c(F)cc(-c2ccn(C(F)F)n2)cc1F)NC(=O)[C@@H](NC(=O)OC)C(C)(C)C(F)(F)F)C(C)(C)C(F)(F)F [Example 58, Methyl ((5S,8S,9S,14S)-11-(4-(1-(difluoromethyl)-1H-pyrazol-3-yl)-2,6-difluorobenzyl)-16,16,16-trifluoro-9-hydroxy-15,15-dimethyl-8-(4-((6-(8-(oxetan-3-yl)-3,8-diazabicyclo[3.2.1]octan-3-yl)pyridin-3-yl)ethynyl)benzyl)-3,6,13-trioxo-5-(1,1,1-trifluoro-2-methylpropan-2-yl)-2-oxa-4,7,11,12-tetraazahexadecan-14-yl)carbamate]
[1]; Human immunodeficiency virus 1, IIIB, MT4, high resolution assay, 40 data points, MT-4 cells, read-out: EC50
  EC50: 6.8 nM
[1]; calculated from Hill coefficient and EC50
  EC95: 11.4 nM
[1]; high resolution assay, Graph Pad Prism
  Hill-coefficient: 5.8
[2]
  Protein Adjusted EC95: 353 nM
[3]
  EC50: 4.79 nM
In vivo; [4]
  DOG IV CL: 7.83 mL/min/kg
  DOG IV T1/2: 13.8 h
In vivo; male beagle dogs, oral gavage, PO dose 2 mg/kg
  DOG PO F: 18%
In vivo; male, beagle, dog, plasma, iv
  Vd: 6.34 L/kg
